Assay results published in patent publication US9540343B2 (Gilead Sciences, Inc., priority 2011, dated 2017).

Experiments:
HIV-IIIb = experiment: Test A: Antiviral assay in MT4 cells; type: cell-based, HIV-1; settings: Human immunodeficiency virus 1, IIIB, MT4, 120 h, read-out: % inhibition at 2 μM, percent inhibition of virus-induced cell killing, from dose response curve at 2 uM drug; MT-4 cells infected with HIV-IIIb, 5 days, CellTiter-Glo
in vitro = settings: human, uninfected MT-4 cells, CC50 (nM), same protocol as Test A, CellTiter-Glo
Summary of the method: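 Cytoprotection read-out: CellTiter-Glo chemiluminescence after 5 days at 37 °C of HIV-IIIb-infected MT-4 cells (m.o.i. 0.003) with compound in 10-point 3-fold dilutions, quadruplicate, 10% FBS. Cytotoxicity (CC50) measured identically without virus.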

## COCc1cn(CC(=O)N[C@@H](Cc2cc(F)cc(F)c2)c2ncccc2-c2ccc(F)c(C(N)=O)c2)nc1C(F)(F)F [Example 361, (S)-5-(2-(2-(3,5-difluorophenyl)-1-(2-(4-(methoxymethyl)-3-(trifluoromethyl)-1H-pyrazol-1-yl)acetamido)ethyl)pyridin-3-yl)-2-fluorobenzamide]
HIV-IIIb
  inhibition at 2 µM: 8%
In vitro
  CC50 at 5 days: > 53200 nM

## Cc1cc(=O)n(CC(=O)N[C@@H](Cc2cc(F)cc(F)c2)c2ncccc2-c2ccnc(C(N)=O)c2)c2ccccc12 [Example 362, (S)-2-(2-(3,5-difluorophenyl)-1-(2-(4-methyl-2-oxoquinolin-1(2H)-yl)acetamido)ethyl)-3,4′-bipyridine-2′-carboxamide]
HIV-IIIb
  inhibition at 2 µM: 23%
In vitro
  CC50 at 5 days: > 53000 nM

## N#Cc1cn(CC(=O)N[C@@H](Cc2cc(F)cc(F)c2)c2ncccc2-c2ccc(F)c(C(N)=O)c2)nc1C(F)(F)F [Example 363, (S)-5-(2-(1-(2-(4-cyano-3-(trifluoromethyl)-1H-pyrazol-1-yl)acetamido)-2-(3,5-difluorophenyl)ethyl)pyridin-3-yl)-2-fluorobenzamide]
HIV-IIIb
  inhibition at 2 µM: 2%
In vitro
  CC50 at 5 days: 21900 nM

## NC(=O)c1cc(-c2cccnc2[C@H](Cc2cc(F)cc(F)c2)NC(=O)Cn2nc(C(F)(F)F)c3c2C2CC2CC3(F)F)ccc1F (stereo partly drawn) [Example 364, 5-(2-((1S)-1-(2-(4,4-difluoro-3-(trifluoromethyl)-5,5a,6,6a-tetrahydrocyclopropa[g]indazol-1(4H)-yl)acetamido)-2-(3,5-difluorophenyl)ethyl)pyridin-3-yl)-2-fluorobenzamide]
HIV-IIIb
  inhibition at 2 µM: 38%
In vitro
  CC50 at 5 days: 3760 nM

## O=C(Cc1c[nH]c2ccc(F)cc12)N[C@@H](Cc1cc(F)cc(F)c1)c1ncncc1-c1ccc(Cl)cc1 [Example 365, (S)—N-(1-(5-(4-chlorophenyl)pyrimidin-4-yl)-2-(3,5-difluorophenyl)ethyl)-2-(5-fluoro-1H-indol-3-yl)acetamide]
HIV-IIIb
  inhibition at 2 µM: 86%
In vitro
  CC50 at 5 days: 12500 nM

## NC(=O)c1cc(-c2cccnc2[C@H](Cc2cc(F)cc(F)c2)NC(=O)Cn2nc(Br)nc2C2CC2)ccc1F [Example 366, (S)-5-(2-(1-(2-(3-bromo-5-cyclopropyl-1H-1,2,4-triazol-1-yl)acetamido)-2-(3,5-difluorophenyl)ethyl)pyridin-3-yl)-2-fluorobenzamide]
HIV-IIIb
  inhibition at 2 µM: 6%
In vitro
  CC50 at 5 days: > 53200 nM

## Cc1cc2ccccc2n1CC(=O)N[C@@H](Cc1cc(F)cc(F)c1)c1ncccc1-c1ccc(F)c(C(N)=O)c1 [Example 367, (S)-5-(2-(2-(3,5-difluorophenyl)-1-(2-(2-methyl-1H-indol-1-yl)acetamido)ethyl)pyridin-3-yl)-2-fluorobenzamide]
HIV-IIIb
  inhibition at 2 µM: 20%
In vitro
  CC50 at 5 days: 13400 nM

## NC(=O)c1cc(-c2cccnc2[C@H](Cc2cc(F)cc(F)c2)NC(=O)Cn2cnc3c(Cl)nccc32)ccc1F [Example 368, (S)-5-(2-(1-(2-(4-chloro-1H-imidazo[4,5-c]pyridin-1-yl)acetamido)-2-(3,5-difluorophenyl)ethyl)pyridin-3-yl)-2-fluorobenzamide]
HIV-IIIb
  inhibition at 2 µM: 2%
In vitro
  CC50 at 5 days: 47300 nM

## CC1(C)CC(=O)c2c(C(F)(F)F)nn(CC(=O)N[C@@H](Cc3cc(F)cc(F)c3)c3ncccc3-c3ccc(F)c(C(N)=O)c3)c2C1 [Example 369, (S)-5-(2-(2-(3,5-difluorophenyl)-1-(2-(6,6-dimethyl-4-oxo-3-(trifluoromethyl)-4,5,6,7-tetrahydro-1H-indazol-1-yl)acetamido)ethyl)pyridin-3-yl)-2-fluorobenzamide]
HIV-IIIb
  inhibition at 2 µM: 5%
In vitro
  CC50 at 5 days: > 53000 nM

## NC(=O)c1cc(-c2cccnc2[C@H](Cc2cc(F)cc(F)c2)NC(=O)Cn2nc(C(F)F)c3c2C(=O)CCC3)ccc1F [Example 370, (S)-5-(2-(1-(2-(3-(difluoromethyl)-7-oxo-4,5,6,7-tetrahydro-1H-indazol-1-yl)acetamido)-2-(3,5-difluorophenyl)ethyl)pyridin-3-yl)-2-fluorobenzamide]
HIV-IIIb
  inhibition at 2 µM: 33%
In vitro
  CC50 at 5 days: 22700 nM

## Nc1ncc(-c2cccnc2[C@H](Cc2cc(F)cc(F)c2)NC(=O)Cn2nc(C(F)F)c3c2C(F)(F)CCC3(F)F)cc1C(F)(F)F [Example 371, (S)—N-(1-(6′-amino-5′-(trifluoromethyl)-3,3′-bipyridin-2-yl)-2-(3,5-difluorophenyl)ethyl)-2-(3-(difluoromethyl)-4,4,7,7-tetrafluoro-4,5,6,7-tetrahydro-1H-indazo-1-yl)acetamide]
HIV-IIIb
  inhibition at 2 µM: 83%
In vitro
  CC50 at 5 days: 7590 nM

## Cc1c(C#N)c(C(F)(F)F)nn1CC(=O)N[C@@H](Cc1cc(F)cc(F)c1)c1ncccc1-c1ccc(N(C)C)c(C(N)=O)c1 [Example 372, (S)-5-(2-(1-(2-(4-cyano-5-methyl-3-(trifluoromethyl)-1H-pyrazol-1-yl)acetamido)-2-(3,5-difluorophenyl)ethyl)pyridin-3-yl)-2-(dimethylamino)benzamide]
HIV-IIIb
  inhibition at 2 µM: 0%
In vitro
  CC50 at 5 days: 24000 nM

## COc1ccc2cccc(CC(=O)N[C@@H](Cc3cc(F)cc(F)c3)c3ncccc3-c3ccc(F)c(C#N)c3)c2c1 [Example 373, (S)—N-(1-(3-(3-cyano-4-fluorophenyl)pyridin-2-yl)-2-(3,5-difluorophenyl)ethyl)-2-(7-methoxynaphthalen-1-yl)acetamide]
HIV-IIIb
  inhibition at 2 µM: 0%
In vitro
  CC50 at 5 days: 8140 nM

## Cc1nc(C(F)(F)F)nn1CC(=O)N[C@@H](Cc1cc(F)cc(F)c1)c1ncccc1-c1ccc(F)c(C(N)=O)c1 [Example 374, (S)-5-(2-(2-(3,5-difluorophenyl)-1-(2-(5-methyl-3-(trifluoromethyl)-1H-1,2,4-triazol-1-yl)acetamido)ethyl)pyridin-3-yl)-2-fluorobenzamide]
HIV-IIIb
  inhibition at 2 µM: 5%
In vitro
  CC50 at 5 days: > 53200 nM

## Nc1ccc(-c2cccnc2[C@H](Cc2cc(F)cc(F)c2)NC(=O)Cn2nc(C(F)F)c3c2C(F)(F)CCC3(F)F)cn1 [Example 375, (S)—N-(1-(6′-amino-3,3′-bipyridin-2-yl)-2-(3,5-difluorophenyl)ethyl)-2-(3-(difluoromethyl)-4,4,7,7-tetrafluoro-4,5,6,7-tetrahydro-1H-indazol-1-yl)acetamide]
HIV-IIIb
  inhibition at 2 µM: 98%
In vitro
  CC50 at 5 days: 15200 nM

## Cc1c(C#N)c(C(F)(F)F)nn1CC(=O)N[C@@H](Cc1cc(F)cc(F)c1)c1ncccc1-c1ccc(F)c(C(N)=O)c1 [Example 376, (S)-5-(2-(1-(2-(4-cyano-5-methyl-3-(trifluoromethyl)-1H-pyrazol-1-yl)acetamido)-2-(3,5-difluorophenyl)ethyl)pyridin-3-yl)-2-fluorobenzamide]
HIV-IIIb
  inhibition at 2 µM: 2%
In vitro
  CC50 at 5 days: 29100 nM

## N#Cc1cc(-c2cccnc2[C@H](Cc2cc(F)cc(F)c2)NC(=O)Cc2c[nH]c3ccc(F)cc23)ccn1 [Example 377, (S)—N-(1-(2′-cyano-3,4′-bipyridin-2-yl)-2-(3,5-difluorophenyl)ethyl)-2-(5-fluoro-1H-indol-3-yl)acetamide]
HIV-IIIb
  inhibition at 2 µM: 22%
In vitro
  CC50 at 5 days: 18600 nM

## CC(C)(C)OC(=O)N1CCc2c(C(F)(F)F)nn(CC(=O)N[C@@H](Cc3cc(F)cc(F)c3)c3ncccc3-c3ccc(F)c(C(N)=O)c3)c2C1 [Example 378, (S)-tert-butyl 1-(2-(1-(3-(3-carbamoyl-4-fluorophenyl)pyridin-2-yl)-2-(3,5-difluorophenyl)ethylamino)-2-oxoethyl)-3-(trifluoromethyl)-4,5-dihydro-1H-pyrazolo[3,4-c]pyridine-6(7H)-carboxylate]
HIV-IIIb
  inhibition at 2 µM: 5%
In vitro
  CC50 at 5 days: 17100 nM

## O=C(Cn1nc(C(F)(F)F)c2c1C1CC1CC2)N[C@@H](Cc1cc(F)cc(F)c1)c1ncccc1-c1cnc2[nH]ccc2c1 (stereo partly drawn) [Example 379, N—((S)-1-(3-(1H-pyrrolo[2,3-b]pyridin-5-yl)pyridin-2-yl)-2-(3,5-difluorophenyl)ethyl)-2-(3-(trifluoromethyl)-5,5a,6,6a-tetrahydrocyclopropa[g]indazol-1(4H)-yl)acetamide]
HIV-IIIb
  inhibition at 2 µM: 112%
In vitro
  CC50 at 5 days: 9240 nM

## NC(=O)c1cc(-c2cccnc2[C@H](Cc2cc(F)cc(F)c2)NC(=O)Cn2nc(C(F)F)c3c2C(F)(F)CCC3)ccc1F [Example 380, (S)-5-(2-(1-(2-(3-(difluoromethyl)-7,7-difluoro-4,5,6,7-tetrahydro-1H-indazol-1-yl)acetamido)-2-(3,5-difluorophenyl)ethyl)pyridin-3-yl)-2-fluorobenzamide]
HIV-IIIb
  inhibition at 2 µM: 97%
In vitro
  CC50 at 5 days: 18300 nM

## NC(=O)c1cc(-c2cccnc2[C@H](Cc2cc(F)cc(F)c2)NC(=O)Cn2nc3c(c2C(F)(F)F)C(F)(F)C2CC32)ccc1F (stereo partly drawn) [Example 381, 5-(2-((1S)-1-(2-(4,4-difluoro-3-(trifluoromethyl)-4,4-a,5,5a-tetrahydro-2H-cyclopropa[4,5]cyclopenta[1,2-c]pyrazol-2-yl)acetamido)-2-(3,5-difluorophenyl)ethyl)pyridin-3-yl)-2-fluorobenzamide]
HIV-IIIb
  inhibition at 2 µM: 1%
In vitro
  CC50 at 5 days: 24900 nM

## NC(=O)c1cccc(-c2cccnc2[C@H](Cc2cc(F)cc(F)c2)NC(=O)Cn2cnc3c2CCCC3)c1 [Example 382, (S)-3-(2-(2-(3,5-difluorophenyl)-1-(2-(4,5,6,7-tetrahydro-1H-benzo[d]imidazol-1-yl)acetamido)ethyl)pyridin-3-yl)benzamide]
HIV-IIIb
  inhibition at 2 µM: 85%
In vitro
  CC50 at 5 days: > 39900 nM

## O=C(Cn1nc(C(F)(F)F)c2c1CCCC2)N[C@H](Cc1cc(F)cc(F)c1)c1ncncc1-c1ccc(Cl)cc1 [Example 383, (R)—N-(1-(5-(4-chlorophenyl)pyrimidin-4-yl)-2-(3,5-difluorophenyl)ethyl)-2-(3-(trifluoromethyl)-4,5,6,7-tetrahydro-1H-indazol-1-yl)acetamide]
HIV-IIIb
  inhibition at 2 µM: 32%
In vitro
  CC50 at 5 days: 15500 nM
